Experimental data as given in patent publication US8865706B2, “Heteroaryl-substituted hexahydropyrano[3,4-d][1,3]thiazin-2-amine compounds” (Pfizer Inc., priority 2013, dated 2014).

Columns and labels:
[1] = system: sAPPβ levels in H4 human neuroglioma cells over-expressing the wild-type human APP695; experiment: Whole Cell Assay (In Vitro sAPPb Assay); type: cell-based; details: 18 hours treatment, average of 2 determinations, values marked b: geometric mean of 3-9 determinations
Protocol: Whole Cell Assay (In Vitro sAPPb Assay):
H4 human neuroglioma cells over-expressing the wild-type human APP695 are treated for 18 hours with compound in a final concentration 1% DMSO. sAPPβ levels are measured using TMB-ELISA with capture APP N-terminal antibody (Affinity BioReagents, OMA1-03132), wild-type sAPPβ specific reporter p192 (Elan), and tertiary anti rabbit-HRP (GE Healthcare).

[2] = target: BACE1 enzyme (Homo sapiens (Human), UniProt P56817); experiment: BACE1 Cell-Free Assay (fluorescence polarization, cleavage of synthetic APP substrate); type: biochemical; details: average of 2 determinations; values marked b: geometric mean of 3-9 determinations
BACE1 enzyme, sequence (P56817 46-457): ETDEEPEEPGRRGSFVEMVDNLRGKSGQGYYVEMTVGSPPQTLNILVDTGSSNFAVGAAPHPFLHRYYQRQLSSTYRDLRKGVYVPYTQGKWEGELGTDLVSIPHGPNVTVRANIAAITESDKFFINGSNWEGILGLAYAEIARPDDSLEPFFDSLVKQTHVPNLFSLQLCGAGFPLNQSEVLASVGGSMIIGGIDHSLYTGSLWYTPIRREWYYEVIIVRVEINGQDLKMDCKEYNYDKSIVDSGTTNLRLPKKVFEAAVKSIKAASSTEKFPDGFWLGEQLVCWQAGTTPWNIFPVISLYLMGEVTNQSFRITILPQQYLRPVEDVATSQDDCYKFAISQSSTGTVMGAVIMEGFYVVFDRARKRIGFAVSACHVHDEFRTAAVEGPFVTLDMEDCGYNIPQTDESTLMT
Description: This assay measures the inhibition of the beta-secretase enzyme as it cleaves a non-native peptide.
A synthetic APP substrate that can be cleaved by beta-secretase having N-terminal biotin and made fluorescent by the covalent attachment of Oregon Green at the Cys residue is used to assay beta-secretase activity in the presence or absence of the inhibitory compounds. […] The BACE1 enzyme is affinity purified material from conditioned media of CHO-K1 cells that have been transfected with a soluble BACE construct (BACE1deltaTM96His). Compounds are incubated in a ½ log dose response curve from a top concentration of 100 μM with BACE1 enzyme and the biotinylated fluorescent peptide in 384-well black plates (Thermo Scientific #4318). BACE1 is at a final concentration of 0.1 nM with a final concentration of peptide substrate of 150 nM in a reaction volume of 30 μL assay buffer [100 mM sodium acetate, pH 4.5 (brought to pH with acetic acid), and 0.001% Tween-20]. Plates are covered and incubated for 3 hours at 37° C. The reaction is stopped with the addition of 30 μL of 1.5 μM Streptavidin (Pierce, #21125). After a 10 minute incubation at room temperature, plates are read on a PerkinElmer EnVision for fluorescence polarization (Ex485 nm/Em530 nm). The activity of the beta-secretase enzyme is detected by changes in the fluorescence polarization that occur when the substrate is cleaved by the enzyme.

| Molecule | IC50 ([1]; Homo sapiens) | IC50 [2] | IC50 [1] |
| --- | --- | --- | --- |
| NC1=N[C@@]2(c3ccc(F)cc3F)CO[C@@H](c3nc(C(F)F)co3)C[C@H]2CS1 [Example 14, (4aR,6R,8aS)-6-[4-(Difluoromethyl)-1,3-oxazol-2-yl]-8a-(2,4-difluorophenyl)-4,4a,5,6,8,8a-hexahydropyrano[3,4-d][1,3]thiazin-2-amine] | 0.0208 µM | 0.231 µM |  |
| Cc1cnc([C@H]2C[C@H]3CSC(N)=N[C@@]3(c3ccc(F)cc3F)CO2)cn1 [Example 20, (4aR,6R,8aS)-8a-(2,4-Difluorophenyl)-6-(5-methylpyrazin-2-yl)-4,4a,5,6,8,8a-hexahydropyrano[3,4-d][1,3]thiazin-2-amine] | 0.0202 µM | 0.389 µM |  |
| Cn1nc([C@H]2C[C@H]3CSC(N)=N[C@@]3(c3ccc(F)cc3F)CO2)cc1F [Example 1, (4aR,6R,8aS)-8a-(2,4-difluorophenyl)-6-(5-fluoro-1-methyl-1H-pyrazol-3-yl)-4,4a,5,6,8,8a-hexahydropyrano[3,4-d][1,3]thiazin-2-amine] | 0.00378 µM | 0.0837 µM |  |
| Cn1cc([C@H]2C[C@H]3[C@@H](CF)SC(N)=N[C@@]3(c3ccc(F)cc3F)CO2)cn1 [Example 22, (4S,4aR,6R,8aS)-8a-(2,4-Difluorophenyl)-4-(fluoromethyl)-6-(1-methyl-1H-pyrazol-4-yl)-4,4a,5,6,8,8a-hexahydropyrano[3,4-d][1,3]thiazin-2-amine] | 0.00628 µM |  |  |
| COc1cnc([C@H]2C[C@H]3CSC(N)=N[C@@]3(c3ccc(F)cc3F)CO2)nc1 [Example 11, (4aR,6R,8aS)-8a-(2,4-Difluorophenyl)-6-(5-methoxypyrimidin-2-yl)-4,4a,5,6,8,8a-hexahydropyrano[3,4-d][1,3]thiazin-2-amine] | 0.0291 µM | 0.343 µM |  |
| Cc1cc([C@H]2C[C@H]3[C@@H](C)SC(N)=N[C@@]3(c3ccc(F)cc3F)CO2)on1 [Example 9, (4R,4aR,6R,8aS)-8a-(2,4-difluorophenyl)-4-methyl-6-(3-methyl-1,2-oxazol-5-yl)-4,4a,5,6,8,8a-hexahydropyrano[3,4-d][1,3]thiazin-2-amine] | 0.00528 µM | 0.0759 µM |  |
| Cn1ncc([C@H]2C[C@H]3CSC(N)=N[C@@]3(c3ccc(F)cc3F)CO2)n1 [Example 12, (4aR,6R,8aS)-8a-(2,4-Difluorophenyl)-6-(2-methyl-2H-1,2,3-triazol-4-yl)-4,4a,5,6,8,8a-hexahydropyrano[3,4-d][1,3]thiazin-2-amine] | 0.0413 µM | 0.466 µM |  |
| Cn1cc([C@H]2C[C@H]3CSC(N)=N[C@@]3(c3ccc(F)cc3F)CO2)ccc1=O [Example 3, 5-[(4aR,6R,8aS)-2-Amino-8a-(2,4-difluorophenyl)-4,4a,5,6,8,8a-hexahydropyrano[3,4-d][1,3]thiazin-6-yl]-1-methylpyridin-2(1H)-one] | 0.00743 µM | 0.119 µM |  |
| Cc1cc([C@H]2C[C@H]3CSC(N)=N[C@@]3(c3ccc(F)cc3F)CO2)ccn1 [Example 27, (4aR,6R,8aS)-8a-(2,4-Difluorophenyl)-6-(2-methylpyridin-4-yl)-4,4a,5,6,8,8a-hexahydropyrano[3,4-d][1,3]thiazin-2-amine] | 0.00473 µM | 0.221 µM |  |
| Cn1cc(F)c([C@H]2C[C@H]3CSC(N)=N[C@@]3(c3ccc(F)cc3F)CO2)n1 [Example 8, (4aR,6R,8aS)-8a-(2,4-difluorophenyl)-6-(4-fluoro-1-methyl-1H-pyrazol-3-yl)-4,4a,5,6,8,8a-hexahydropyrano[3,4-d][1,3]thiazin-2-amine] | 0.0264 µM | 0.162 µM |  |
| NC1=N[C@@]2(c3ccc(F)cc3F)CO[C@@H](c3cn4cccnc4n3)C[C@H]2CS1 [Example 4, (4aR,6R,8aS)-8a-(2,4-Difluorophenyl)-6-(imidazo[1,2-a]pyrimidin-2-yl)-4,4a,5,6,8,8a-hexahydropyrano[3,4-d][1,3]thiazin-2-amine] | 0.0662 µM | 1.84 µM |  |
| (4aR,6R,8aS)-8a-(2,4-Difluorophenyl)-6-[1-(^2H3)methyl-1H-pyrazol-4-yl]-4,4a,5,6,8,8a-hexahydropyrano[3,4-d][1,3]thiazin-2-amine [Example 15] |  |  | 0.00437 µM |
| NC1=N[C@@]2(c3ccc(F)cc3F)CO[C@@H](c3ccc(F)cn3)C[C@H]2CS1 [Example 2, (4aR,6R,8aS)-8a-(2,4-Difluorophenyl)-6-(5-fluoropyridin-2-yl)-4,4a,5,6,8,8a-hexahydropyrano[3,4-d][1,3]thiazin-2-amine] | 0.0182 µM | 0.233 µM |  |
| NC1=N[C@@]2(c3ccc(F)cc3F)CO[C@@H](c3ccc4nccn4c3)C[C@H]2CS1 [Example 28, (4aR,6R,8aS)-8a-(2,4-Difluorophenyl)-6-(imidazo[1,2-a]pyridin-6-yl)-4,4a,5,6,8,8a-hexahydropyrano[3,4-d][1,3]thiazin-2-amine] | 0.0155 µM | 2.15 µM |  |
| NC1=N[C@@]2(c3ccc(F)cc3F)CO[C@@H](c3cncnc3)C[C@H]2CS1 [Example 24, (4aR,6R,8aS)-8a-(2,4-Difluorophenyl)-6-(pyrimidin-5-yl)-4,4a,5,6,8,8a-hexahydropyrano[3,4-d][1,3]thiazin-2-amine] | 0.141 µM | 1.55 µM |  |

Second part, led by results:

| IC50 ([1]; Homo sapiens) | IC50 [2] | Molecule | IC50 [1] |
| --- | --- | --- | --- |
| 0.0626 µM | 1.25 µM | COc1cncc([C@H]2C[C@H]3CSC(N)=N[C@@]3(c3ccc(F)cc3F)CO2)c1 [Example 26, (4aR,6R,8aS)-8a-(2,4-Difluorophenyl)-6-(5-methoxypyridin-3-yl)-4,4a,5,6,8,8a-hexahydropyrano[3,4-d][1,3]thiazin-2-amine] |  |
| 0.0212 µM | 0.24 µM | NC1=N[C@@]2(c3ccc(F)cc3F)CO[C@@H](c3nc4cnccc4o3)C[C@H]2CS1 [Example 10, (4aR,6R,8aS)-8a-(2,4-difluorophenyl)-6-([1,3]oxazolo[4,5-c]pyridin-2-yl)-4,4a,5,6,8,8a-hexahydropyrano[3,4-d][1,3]thiazin-2-amine] |  |
| 0.00284 µM | 0.0246 µM | C[C@H]1SC(N)=N[C@@]2(c3ccc(F)cc3F)CO[C@@H](c3cnn(C)c3)C[C@@H]12 [Example 16, (4R,4aR,6R,8aS)-8a-(2,4-Difluorophenyl)-4-methyl-6-(1-methyl-1H-pyrazol-4-yl)-4,4a,5,6,8,8a-hexahydropyrano[3,4-d][1,3]thiazin-2-amine] |  |
| 0.0131 µM | 0.0548 µM | Cc1cc([C@H]2C[C@H]3[C@@H](CF)SC(N)=N[C@@]3(c3ccc(F)cc3F)CO2)on1 [Example 13, (4S,4aR,6R,8aS)-8a-(2,4-Difluorophenyl)-4-(fluoromethyl)-6-(3-methyl-1,2-oxazol-5-yl)-4,4a,5,6,8,8a-hexahydropyrano[3,4-d][1,3]thiazin-2-amine] |  |
| 0.0067 µM |  | Cc1ccc([C@H]2C[C@H]3CSC(N)=N[C@@]3(c3ccc(F)cc3F)CO2)cn1 (relative stereo) [Example 7, rel-(4aR,6R,8aS)-8a-(2,4-Difluorophenyl)-6-(6-methylpyridin-3-yl)-4,4a,5,6,8,8a-hexahydropyrano[3,4-d][1,3]thiazin-2-amine] |  |
| 0.0027 µM |  | NC1=N[C@@]2(c3ccc(F)cc3F)CO[C@@H](c3cncc(F)c3)C[C@H]2CS1 [Example 29, (4aR,6R,8aS)-8a-(2,4-difluorophenyl)-6-(5-fluoropyridin-3-yl)-4,4a,5,6,8,8a-hexahydropyrano[3,4-d][1,3]thiazin-2-amine] |  |
| 0.0133 µM | 0.0728 µM | NC1=N[C@@]2(c3ccc(F)cc3F)CO[C@@H](c3cnn(CC(F)(F)F)c3)C[C@H]2CS1 [Example 5, (4aR,6R,8aS)-8a-(2,4-Difluorophenyl)-6-[1-(2,2,2-trifluoroethyl)-1H-pyrazol-4-yl]-4,4a,5,6,8,8a-hexahydropyrano[3,4-d][1,3]thiazin-2-amine] |  |
| 0.0405 µM | 0.384 µM | COc1cc([C@H]2C[C@H]3CSC(N)=N[C@@]3(c3ccc(F)cc3F)CO2)ccn1 [Example 25, (4aR,6R,8aS)-8a-(2,4-Difluorophenyl)-6-(2-methoxypyridin-4-yl)-4,4a,5,6,8,8a-hexahydropyrano[3,4-d][1,3]thiazin-2-amine] |  |
| 0.0415 µM | 0.341 µM | Cc1nc([C@H]2C[C@H]3CSC(N)=N[C@@]3(c3ccc(F)cc3F)CO2)no1 [Example 6, (4aR,6R,8aS)-8a-(2,4-Difluorophenyl)-6-(5-methyl-1,2,4-oxadiazol-3-yl)-4,4a,5,6,8,8a-hexahydropyrano[3,4-d][1,3]thiazin-2-amine] |  |
| 0.0732 µM | 0.555 µM | N#Cc1coc([C@H]2C[C@H]3CSC(N)=N[C@@]3(c3ccc(F)cc3F)CO2)n1 [Example 19, 2-[(4aR,6R,8aS)-2-Amino-8a-(2,4-difluorophenyl)-4,4a,5,6,8,8a-hexahydropyrano[3,4-d][1,3]thiazin-6-yl]-1,3-oxazole-4-carbonitrile] |  |
